Experimental data: publication PMC7648750, “In vitro and in vivo BNCT investigations using a carborane containing sulfonamide targeting CAIX epitopes on malignant pleural mesothelioma and breast cancer cells” (Scientific Reports, 2020)

Assay: Boron biodistribution in AB22 tumour bearing mice (ICP-MS)
Type: in vivo, Balb/c mice
Settings: 37.5 mg/kg of boron, ± SD; for Brain [boron]: with β-cyclodextrin oligomer
Experimental: Adult male Balb/c mice were maintained under specific pathogen-free conditions at the animal facility of the Department of Molecular Biotechnology and Health Sciences (Turin University, Italy). All animal experiments have been carried out in accordance with the EU Directive 2010/63/EU for animal experiments. The animal treatment protocol was approved by the Italian Ministry of Health (Authorization Number 1012/2015-PR). AB22 cells were cultured as described above and tumours were generated by the injection of 4.8 × 10^6 AB22 cells in a final volume of 0.15 ml GFNR Matrigel (CORNING Ref. 354234): PBS (1:1 v/v) subcutaneously in the neck of the mouse. One week after the AB22-cell injection, the mice developed solid tumours of approximately 50 ± 10 mm^3 in volume. At this time, mice (n = 6) received an intravenous injection of CA-SF (88 mg/kg corresponding to 37.5 mg/kg of ^10B). Before the injection, CA-SF in DMSO was mixed in the presence of poly β-cyclodextrin (MW = 15,000 Da) previously dissolved in 0.9% solution of NaCl. The used CA-SF molar ratio with respect to β-cyclodextrin oligomer was 10:1. The DMSO concentration in 0.9% NaCl was kept under 5%. The mice were then sacrificed at 6 h (n = 3) and at 16 h (n = 3). The boron content of mice plasma, tumours, organs (Liver, Lung, Brain, Spleen, Kidneys) and healthy tissues (Muscle) was determined by ICP-MS technique (see below).
Boron content from cell samples, mice organs, plasma and tumours were determined using inductively coupled plasma mass spectrometry (ICP-MS) (Element-2; Thermo-Finnigan, Rodano (MI), Italy).
The mice blood was collected and centrifuged at 2500 rpm for 10 min to split the plasma part over whole blood; the tumours, organs and healthy tissues were explanted. All was weighted, dissolved in HNO3 (70%) and digested. Both natural boron abundant and ^10B enriched standard solution was analyzed during sample runs in order to check for variations in the systematic bias. The calibration curve was obtained using four boron absorption standard solutions (Sigma-Aldrich) in the range 0.1–0.004 μg/mL.

Brain [boron] (6 h post i.v.): 30.7 ± 11.2 µg/g
Kidney [boron] (6 h post i.v.): 48.2 ± 15.3 µg/g
Liver [boron] (6 h post i.v.): 64.5 ± 1.2 µg/g
Lungs [boron] (6 h post i.v.): 37.2 ± 11.2 µg/g
Muscle [boron] (6 h post i.v.): 13.2 ± 2.5 µg/g
Plasma [boron] (6 h post i.v.): 20.4 ± 5.4 µg/g
Spleen [boron] (6 h post i.v.): 18.5 ± 5.8 µg/g
Tumour [boron] (6 h post i.v.): 13.8 ± 2.4 µg/g
Brain [boron] (16 h post i.v.): 7.3 ± 1.1 µg/g
Kidney [boron] (16 h post i.v.): 13.7 ± 1.9 µg/g
Liver [boron] (16 h post i.v.): 22.7 ± 3.5 µg/g
Lungs [boron] (16 h post i.v.): 12.1 ± 2.2 µg/g
Muscle [boron] (16 h post i.v.): 4.4 ± 1.2 µg/g
Plasma [boron] (16 h post i.v.): 11.1 ± 1.3 µg/g
Spleen [boron] (16 h post i.v.): 6.2 ± 1.5 µg/g
Tumour [boron] (16 h post i.v.): 7.4 ± 2.1 µg/g
Substance: 1-Sulfonamidomethyl-o-carborane [CA-SF]
